{
  "source": "ChEMBL document CHEMBL1142254",
  "about": "“5'-Fluoro-5'-deoxyaristeromycin” (Bioorg Med Chem Lett, 2008)",
  "key": {"West Nile virus": {"tested_on": "West Nile virus", "test": "Antiviral activity against West Nile virus", "assay_type": "functional, organism-based"}, "[1]": {"tested_on": "Respiratory syncytial virus", "test": "Antiviral activity against RSV", "assay_type": "functional, organism-based"}, "Measles morbillivirus [2]": {"tested_on": "Measles morbillivirus", "test": "Antiviral activity against measles virus MO6 by visual assay", "assay_type": "functional, organism-based"}, "HeLa": {"tested_on": "HeLa", "test": "Cytotoxicity against human HeLa cells", "assay_type": "cell-based"}, "Human alphaherpesvirus 1 [3]": {"tested_on": "Human alphaherpesvirus 1", "test": "Antiviral activity against HSV1", "assay_type": "functional, organism-based"}, "Cowpox virus": {"tested_on": "Cowpox virus", "test": "Antiviral activity against Cowpox virus", "assay_type": "functional, organism-based"}, "unidentified adenovirus": {"tested_on": "unidentified adenovirus", "test": "Antiviral activity against adenovirus", "assay_type": "functional, organism-based"}, "[4]": {"tested_on": "Mammalian orthoreovirus 1", "test": "Antiviral activity against Reovirus1", "assay_type": "functional, organism-based"}, "[5]": {"test": "Cytotoxicity against rhesus monkey MA104 cells", "assay_type": "cell-based, Macaca mulatta"}, "A549": {"tested_on": "A549", "test": "Cytotoxicity against human A549 cells", "assay_type": "cell-based"}, "MDCK": {"tested_on": "MDCK", "test": "Cytotoxicity against dog MDCK cells", "assay_type": "cell-based, Canis lupus familiaris"}, "[6]": {"test": "Cytotoxicity against human Huh7ET cells", "assay_type": "cell-based", "conditions": "huh-7"}, "Human alphaherpesvirus 1 [7]": {"tested_on": "Human alphaherpesvirus 1", "test": "Antiviral activity against thymidine kinase deficient HSV1", "assay_type": "functional, organism-based"}, "Human respirovirus 3": {"tested_on": "Human respirovirus 3", "test": "Antiviral activity against Parainfluenza 3 virus", "assay_type": "functional, organism-based"}, "Vero": {"tested_on": "Vero", "test": "Cytotoxicity against african green monkey Vero cells", "assay_type": "cell-based", "conditions": "chlorocebus sabaeus"}, "Sindbis virus": {"tested_on": "Sindbis virus", "test": "Antiviral activity against Sindbis virus", "assay_type": "functional, organism-based"}, "Enterovirus": {"tested_on": "Enterovirus", "test": "Antiviral activity against rhinovirus", "assay_type": "functional, organism-based"}, "Hepatitis C virus": {"tested_on": "Hepatitis C virus", "test": "Antiviral activity against HCV", "assay_type": "functional, organism-based", "conditions": "Hepacivirus hominis"}, "Coxsackievirus B4": {"tested_on": "Coxsackievirus B4", "test": "Antiviral activity against Coxsackie virus B4", "assay_type": "functional, organism-based"}, "Feline coronavirus": {"tested_on": "Feline coronavirus", "test": "Antiviral activity against Feline coronavirus", "assay_type": "functional, organism-based"}, "Measles morbillivirus [8]": {"tested_on": "Measles morbillivirus", "test": "Antiviral activity against measles virus MO6 by neutral red assay", "assay_type": "functional, organism-based"}, "HEL": {"tested_on": "HEL", "test": "Cytotoxicity against human HEL cells", "assay_type": "cell-based"}, "Vaccinia virus": {"tested_on": "Vaccinia virus", "test": "Antiviral activity against vaccinia virus", "assay_type": "functional, organism-based", "conditions": "Orthopoxvirus vaccinia"}, "HFF": {"tested_on": "HFF", "test": "Cytotoxicity against human HFF cells", "assay_type": "cell-based"}, "[9]": {"test": "Cytotoxicity against cat CRFK cells", "assay_type": "cell-based, Felis catus"}, "[10]": {"test": "Cytotoxicity against african green monkey CV1 cells", "assay_type": "cell-based", "conditions": "chlorocebus aethiops, cv-1"}, "Punta Toro virus": {"tested_on": "Punta Toro virus", "test": "Antiviral activity against Punta Toro virus", "assay_type": "functional, organism-based"}, "Human alphaherpesvirus 2": {"tested_on": "Human alphaherpesvirus 2", "test": "Antiviral activity against HSV2", "assay_type": "functional, organism-based"}, "[11]": {"tested_on": "Vesicular stomatitis virus", "test": "Antiviral activity against in Vesicular stomatitis virus", "assay_type": "functional, organism-based"}},
  "note": "pEC50: −log10 of the molar value. Activity calls are given as the source filed them. The rule behind the calls is not given here.",
  "data": [
    {"smiles": "Nc1ncnc2c1ncn2[C@@H]1C[C@H](CF)[C@@H](O)[C@H]1O", "values": [
      {"measurement": "Activity", "setting": "West Nile virus", "result": "inactive"},
      {"measurement": "Activity", "setting": "[1]", "result": "inactive"},
      {"measurement": "pEC50", "setting": "Measles morbillivirus [2]", "result": 4.89},
      {"measurement": "Activity", "setting": "HeLa", "result": "Non-toxic"},
      {"measurement": "Activity", "setting": "Human alphaherpesvirus 1 [3]", "result": "inactive"},
      {"measurement": "Activity", "setting": "Cowpox virus", "result": "inactive"},
      {"measurement": "Activity", "setting": "unidentified adenovirus", "result": "inactive"},
      {"measurement": "Activity", "setting": "[4]", "result": "inactive"},
      {"measurement": "Activity", "setting": "[5]", "result": "Non-toxic"},
      {"measurement": "Activity", "setting": "A549", "result": "Non-toxic"},
      {"measurement": "Activity", "setting": "MDCK", "result": "Non-toxic"},
      {"measurement": "Activity", "setting": "[6]", "result": "Non-toxic"},
      {"measurement": "Activity", "setting": "Human alphaherpesvirus 1 [7]", "result": "inactive"},
      {"measurement": "Activity", "setting": "Human respirovirus 3", "result": "inactive"},
      {"measurement": "Activity", "setting": "Vero", "result": "Non-toxic"},
      {"measurement": "Activity", "setting": "Sindbis virus", "result": "inactive"},
      {"measurement": "Activity", "setting": "Enterovirus", "result": "inactive"},
      {"measurement": "Activity", "setting": "Hepatitis C virus", "result": "inactive"},
      {"measurement": "Activity", "setting": "Coxsackievirus B4", "result": "inactive"},
      {"measurement": "Activity", "setting": "Feline coronavirus", "result": "inactive"},
      {"measurement": "pEC50", "setting": "Measles morbillivirus [8]", "result": 5.55},
      {"measurement": "Activity", "setting": "HEL", "result": "Non-toxic"},
      {"measurement": "Activity", "setting": "Vaccinia virus", "result": "inactive"},
      {"measurement": "Activity", "setting": "HFF", "result": "Non-toxic"},
      {"measurement": "Activity", "setting": "[9]", "result": "Non-toxic"},
      {"measurement": "Activity", "setting": "[10]", "result": "Non-toxic"},
      {"measurement": "Activity", "setting": "Punta Toro virus", "result": "inactive"},
      {"measurement": "Activity", "setting": "Human alphaherpesvirus 2", "result": "inactive"},
      {"measurement": "Activity", "setting": "[11]", "result": "inactive"}
    ]}
  ]
}
